# Assay results: EP4678638A1, “NEW E3 UBIQUITIN LIGASE LIGAND, PROTEIN DEGRADATION AGENT AND USE THEREOF” (priority 2023, dated 2024)
# How the values were obtained:
# H2228 = experiment: CCK-8 proliferation, NCI-H2228 (H2228); assay type: cell-based; details: Homo sapiens, NCI-H2228; Table B6, compounds designed based on the ALK inhibitors; H2228 cells; read-out: Inhibitory activity (IC50, nM) on tumor cell proliferation, H2228
# Outline: (§1)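 Tumor cells were cultured at 37°C with 5% CO2, seeded, and after 24h treated with compounds at 10 concentrations starting at 10µM (5-fold serial dilutions).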
# SR = experiment: CCK-8 proliferation, SR; assay type: cell-based, Human; details: Homo sapiens; Table B6, compounds designed based on the ALK inhibitors; SR cells; read-out: Inhibitory activity (IC50, nM) on tumor cell proliferation, SR
# Outline: as §1
# ALK = biological target: T1, ALK (Homo sapiens, UniProt Q96SW2+Q9HC35+Q9UM73); experiment: Western blot degradation of ALK (H2228 Cell); assay type: cell-based; details: Table D5
# T1 construct: evaluate the effects of the compounds of the present disclosure on the expression of target proteins in cells; endogenous in cells; host or cells: H2228
# T1 sequence (Q9HC35+Q9UM73 fused): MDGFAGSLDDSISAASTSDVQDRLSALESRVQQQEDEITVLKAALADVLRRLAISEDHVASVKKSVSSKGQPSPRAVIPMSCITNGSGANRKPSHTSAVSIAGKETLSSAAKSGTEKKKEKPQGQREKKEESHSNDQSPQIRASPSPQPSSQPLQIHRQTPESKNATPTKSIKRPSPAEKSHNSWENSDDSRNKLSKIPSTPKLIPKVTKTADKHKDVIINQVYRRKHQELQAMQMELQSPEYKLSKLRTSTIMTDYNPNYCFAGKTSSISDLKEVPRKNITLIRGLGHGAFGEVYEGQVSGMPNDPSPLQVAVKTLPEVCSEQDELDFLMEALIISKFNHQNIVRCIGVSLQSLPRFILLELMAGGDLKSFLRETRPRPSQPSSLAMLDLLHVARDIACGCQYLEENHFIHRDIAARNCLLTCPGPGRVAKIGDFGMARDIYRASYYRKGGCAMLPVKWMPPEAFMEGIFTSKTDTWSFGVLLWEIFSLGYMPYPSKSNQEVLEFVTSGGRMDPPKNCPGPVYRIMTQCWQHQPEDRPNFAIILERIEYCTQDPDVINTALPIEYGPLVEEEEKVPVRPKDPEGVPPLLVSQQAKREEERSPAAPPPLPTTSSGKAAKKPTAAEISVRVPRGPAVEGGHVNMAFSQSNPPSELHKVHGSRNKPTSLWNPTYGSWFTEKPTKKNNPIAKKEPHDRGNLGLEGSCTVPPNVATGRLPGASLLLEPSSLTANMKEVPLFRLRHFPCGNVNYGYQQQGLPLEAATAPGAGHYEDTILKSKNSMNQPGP
# T1 sequence (Q96SW2 whole entry): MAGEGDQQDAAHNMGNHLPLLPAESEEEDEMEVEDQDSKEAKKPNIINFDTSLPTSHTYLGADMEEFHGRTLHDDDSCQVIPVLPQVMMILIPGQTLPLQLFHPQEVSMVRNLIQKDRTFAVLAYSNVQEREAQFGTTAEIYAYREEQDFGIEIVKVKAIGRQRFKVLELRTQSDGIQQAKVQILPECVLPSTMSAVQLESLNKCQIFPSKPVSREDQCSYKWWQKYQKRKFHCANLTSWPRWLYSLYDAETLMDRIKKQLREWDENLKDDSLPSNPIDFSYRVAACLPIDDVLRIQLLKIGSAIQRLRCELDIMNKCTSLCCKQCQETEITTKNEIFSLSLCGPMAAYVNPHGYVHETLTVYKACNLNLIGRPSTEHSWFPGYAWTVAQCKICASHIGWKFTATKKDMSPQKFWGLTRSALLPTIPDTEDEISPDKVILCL
# T1 sequence (Q16531 whole entry partner): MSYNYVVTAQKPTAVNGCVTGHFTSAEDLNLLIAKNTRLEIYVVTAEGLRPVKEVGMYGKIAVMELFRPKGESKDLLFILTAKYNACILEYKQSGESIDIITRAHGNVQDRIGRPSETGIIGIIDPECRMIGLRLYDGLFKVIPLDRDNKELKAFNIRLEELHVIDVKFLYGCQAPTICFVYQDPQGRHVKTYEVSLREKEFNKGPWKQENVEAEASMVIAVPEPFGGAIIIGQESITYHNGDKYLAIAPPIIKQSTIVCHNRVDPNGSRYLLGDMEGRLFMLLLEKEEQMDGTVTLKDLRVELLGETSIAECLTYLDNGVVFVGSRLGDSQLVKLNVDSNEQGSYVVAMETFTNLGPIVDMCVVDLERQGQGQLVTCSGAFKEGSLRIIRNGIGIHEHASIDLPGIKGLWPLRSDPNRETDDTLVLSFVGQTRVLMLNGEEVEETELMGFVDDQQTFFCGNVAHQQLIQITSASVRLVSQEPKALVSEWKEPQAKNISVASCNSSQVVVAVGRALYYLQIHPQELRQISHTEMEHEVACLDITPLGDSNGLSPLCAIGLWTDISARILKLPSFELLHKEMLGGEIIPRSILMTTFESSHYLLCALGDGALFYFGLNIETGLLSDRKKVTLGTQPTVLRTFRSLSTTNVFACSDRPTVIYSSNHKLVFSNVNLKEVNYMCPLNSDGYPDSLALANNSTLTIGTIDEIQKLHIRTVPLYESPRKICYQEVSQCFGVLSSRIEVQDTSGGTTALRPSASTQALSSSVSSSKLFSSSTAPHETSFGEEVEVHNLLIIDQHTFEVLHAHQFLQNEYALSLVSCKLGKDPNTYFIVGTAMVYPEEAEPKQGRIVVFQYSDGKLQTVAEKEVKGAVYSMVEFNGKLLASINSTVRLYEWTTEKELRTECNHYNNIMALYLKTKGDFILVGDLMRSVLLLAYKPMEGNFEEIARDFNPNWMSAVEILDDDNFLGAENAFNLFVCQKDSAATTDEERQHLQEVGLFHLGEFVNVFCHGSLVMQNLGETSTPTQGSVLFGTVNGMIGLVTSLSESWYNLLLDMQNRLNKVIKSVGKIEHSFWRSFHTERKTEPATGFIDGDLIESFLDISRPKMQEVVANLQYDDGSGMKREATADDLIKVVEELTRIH
# Experimental: Conventional Western blot assay was performed to evaluate the effects of the compounds of the present disclosure on the expression of target proteins in cells.
# (1) Cell Seeding and Protein Harvesting: The selected cells were processed according to the cell seeding procedure and protein harvesting procedure in Table III-2. Table III-2 Cell Seeding and Protein Harvesting Procedures
# (2) To the collected supernatant, 5X SDS sample loading buffer was added, followed by denaturation at 95°C for 5 minutes. The denatured samples were then separated by SDS-PAGE electrophoresis on a polyacrylamide gel. Proteins were transferred to a nitrocellulose membrane (0.45 µm NC membrane), blocked with blocking buffer at room temperature for 1 hour, and subjected to antibody incubation and development procedures according to the antibody manufacturer's instructions (Cell Signaling Technology).
# Half-Maximal Degradation Concentration value (the drug concentration required for degrading proteins by 50%, abbreviated as DC50) reads method: comparing the grayscale values of Western blot bands from drug-treated samples with those from blank DMSO-treated controls, and identifying the drug concentration range at which the grayscale value is half that of the DMSO-treated control bands.
# DC50 values can be calculated using ImageJ software to measure grayscale values of Western blot bands from drug-treated samples. The concentration-response curve is fitted to estimate the drug concentration corresponding to half the grayscale value.
# Target protein remaining (%) refers to the percentage of target protein remaining in hPBMC cells after treatment with protein degrader compounds.
# Calculation method for target protein remaining (%): Use ImageJ software to measure grayscale values of Western blot bands from drug (protein degrader)-treated samples. The grayscale value of drug-treated bands is divided by that of internal control protein bands, and the resulting quotient is normalized to obtain the relative percentage of remaining target protein after protein degrader treatment.
# Target protein degradation rate (%) = 100% - target protein remaining (%).
# [1] = biological target: T2, human Cereblon WT GST-tagged protein (Homo sapiens, UniProt Q96SW2); experiment: CRBN binding, HTRF (CEREBLON BINDING kit); details: Table II-2, CRBN binding screening, HTRF; for inhibition at 0.5 µM: read-out: Inhibition rate (%) at 0.5µM; for inhibition at 2 µM: read-out: Inhibition rate (%) at 2 µM
# T2 construct: purchased CISBIO 64BDCRBNPEH
# T2 sequence (Q96SW2 whole entry): as the sequence (Q96SW2 whole entry) above
# Outline: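 Competitive HTRF: GST-tagged human WT Cereblon mixed with compound, Thalidomide-Re tracer and GST Eu antibody, incubated 3 h at room temperature. Signals read at 620 and 665 nm.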
# H1975 = experiment: CCK-8 proliferation, NCI-H1975 (H1975); assay type: cell-based, Human; details: Homo sapiens, NCI-H1975; Table B6, compounds designed based on the ALK inhibitors; H1975 cells; read-out: Inhibitory activity (IC50, nM) on tumor cell proliferation, H1975
# Outline: as §1
IC50 (H2228) [nM],inhibition at 0.5 µM [1] [%],inhibition at 2 µM [1] [%],IC50 (H1975) [nM],SMILES,IC50 (SR) [nM],Degradation of substrate protein ALK (substrate protein remaining %) (ALK)
100 to 500,,,,"Cc1cc(Nc2ncc(Cl)c(Nc3ccccc3S(=O)(=O)C(C)C)n2)c(OC(C)C)cc1C1CCN(Cc2cccc(NC3CCC(=O)NC3=O)c2)CC1 (stereo not shown) [GT-07594, 3-((3-((4-(4-((5-chloro-4-((2-(isopropylsulfonyl)phenyl)amino)pyrimidin-2-yl)amino)-5-isopropoxy-2-methylphenyl)piperidin-1-yl)methyl)phenyl)amino)pip eridine-2,6-dione]",50 to 100,A (A is defined as 0% ≤ substrate protein remaining % ≤ 80%)
,40 to 53,60 to 80,500 to 1000,"COc1cc(N2CCN(Cc3ccc(C4CCC(=O)NC4=O)cc3)CC2)ccc1Nc1ncc(Cl)c(Nc2ccccc2P(C)(C)=O)n1 (stereo not shown) [GT-03781, 3-(4-((4-(4-((5-chloro-4-((2-(dimethylphosphoryl)phenyl)amino)pyrimidin-2-yl)amino)-3-methoxyphenyl)piperazin-1-yl)methyl)phenyl)piperidine-2,6-dione]",1 to 10,A (A is defined as 0% ≤ substrate protein remaining % ≤ 80%)
100 to 500,,,,"CCc1cc2c(cc1N1CCN(Cc3ccc(N4CCC(=O)NC4=O)cn3)CC1)C(C)(C)c1[nH]c3cc(C#N)ccc3c1C2=O [GT-07326, 8-(4-((5-(2,4-dioxotetrahydropyrimidin-1(2H)-yl)pyridin-2-yl)methyl)piperazin-1-yl)-9-ethyl-6,6-dimethyl-11-oxo-6,11-dihydro-5H-benzo[b]carbazole-3-carbonitrile]",10 to 50,A (A is defined as 0% ≤ substrate protein remaining % ≤ 80%)
,,,,"COc1cc(N2CCC(N(C)Cc3cc(N4CCC(=O)NC4=O)cnc3F)CC2)ccc1Nc1ncc(Cl)c(Nc2ccccc2P(C)(C)=O)n1 [GT-07750, 1-(5-(((1-(4-((5-chloro-4-((2-(dimethylphosphoryl)phenyl)amino)pyrimidin-2-yl)amino)-3-methoxyphenyl)piperidin-4-yl)(methyl)amino)methyl)-6-fluoropyridin-3-yl)dihydropyrimidine-2,4(1H,3H)-dione]",,A (A is defined as 0% ≤ substrate protein remaining % ≤ 80%)
100 to 500,,,,"CCc1cc2c(cc1N1CCN(Cc3cccc(NC4CCC(=O)NC4=O)c3)CC1)C(C)(C)c1[nH]c3cc(C#N)ccc3c1C2=O (stereo not shown) [GT-07328, 8-(4-(3-((2,6-dioxopiperidin-3-yl)amino)benzyl)piperazin-1-yl)-9-ethyl-6,6-dimethyl-11-oxo-6,11-dihydro-5H-benzo[b]carbazole-3-carbonitrile]",10 to 50,A (A is defined as 0% ≤ substrate protein remaining % ≤ 80%)
,,,,"CCc1cc2c(cc1N1CCN(Cc3cncc(N4CCC(=O)NC4=O)c3)CC1)C(C)(C)c1[nH]c3cc(C#N)ccc3c1C2=O [GT-07835, 8-(4-((5-(2,4-dioxotetrahydropyrimidin-1(2H)-yl)pyridin-3-yl)methyl)piperazin-1-yl)-9-ethyl-6,6-dimethyl-11-oxo-6,11-dihydro-5H-benzo[b]carbazole-3-carbonitrile]",,A (A is defined as 0% ≤ substrate protein remaining % ≤ 80%)
500 to 1000,,,,"Cc1cc(Nc2ncc(Cl)c(Nc3ccccc3S(=O)(=O)C(C)C)n2)c(OC(C)C)cc1C1CCN(Cc2cc(N3CCC(=O)NC3=O)ncc2F)CC1 [GT-07595, 1-(4-((4-(4-((5-chloro-4-((2-(isopropylsulfonyl)phenyl)amino)pyrimidin-2-yl)amino)-5-isopropoxy-2-methylphenyl)piperidin-1-yl)methyl)-5-fluoropyridin-2-yl)dihydropyrimidine-2,4(1H,3H)-dione]",100 to 500,A (A is defined as 0% ≤ substrate protein remaining % ≤ 80%)
,,,,"COc1cc(N2CCN(Cc3cc(N4CCC(=O)NC4=O)cnc3F)CC2)ccc1Nc1ncc(Cl)c(Nc2ccccc2P(C)(C)=O)n1 [GT-07748, 1-(5-((4-(4-((5-chloro-4-((2-(dimethylphosphoryl)phenyl)amino)pyrimidin-2-yl)amino)-3-methoxyphenyl)piperazin-1-yl)methyl)-6-fluoropyridin-3-yl)dihydropyrimidine-2,4(1H,3H)-dione]",,A (A is defined as 0% ≤ substrate protein remaining % ≤ 80%)
,40 to 53,80 to 100,,"COc1cc(N2CCN(Cc3ccc(C4CCC(=O)NC4=O)c(F)c3)CC2)ccc1Nc1ncc(Cl)c(Nc2ccccc2P(C)(C)=O)n1 (stereo not shown) [GT-03782, 3-(4-((4-(4-((5-chloro-4-((2-(dimethylphosphoryl)phenyl)amino)pyrimidin-2-yl)amino)-3-methoxyphenyl)piperazin-1-yl)methyl)-2-fluorophenyl)piperidine-2,6-dione]",10 to 50,A (A is defined as 0% ≤ substrate protein remaining % ≤ 80%)
,,,,"COc1cc(N2CCC(N(C)Cc3cnc(N4CCC(=O)NC4=O)cn3)CC2)ccc1Nc1ncc(Cl)c(Nc2ccccc2P(C)(C)=O)n1 [GT-07751, 1-(5-(((1-(4-((5-chloro-4-((2-(dimethylphosphoryl)phenyl)amino)pyrimidin-2-yl)amino)-3-methoxyphenyl)piperidin-4-yl)(methyl)amino)methyl)pyrazin-2-yl)dihydropyrimidine-2,4(1H,3H)-dione]",,A (A is defined as 0% ≤ substrate protein remaining % ≤ 80%)
,,,,"CCc1cc2c(cc1N1CCC(N3CCN(Cc4cc(N5CCC(=O)NC5=O)cnc4F)CC3)CC1)C(C)(C)c1[nH]c3cc(C#N)ccc3c1C2=O [GT-07755, 8-(4-(4-((5-(2,4-dioxotetrahydropyrimidin-1(2H)-yl)-2-fluoropyridin-3-yl)methyl)piperazin-1-yl)piperidin-1-yl)-9-ethyl-6,6-dimethyl-11-oxo-6,11-dihydro-5H-benzo[b]carbazole-3-carbonitrile]",,A (A is defined as 0% ≤ substrate protein remaining % ≤ 80%)
,,,,"COc1cc(N2CCN(Cc3cnc(N4CCC(=O)NC4=O)cn3)CC2)ccc1Nc1ncc(Cl)c(Nc2ccccc2P(C)(C)=O)n1 [GT-07749, 1-(5-((4-(4-((5-chloro-4-((2-(dimethylphosphoryl)phenyl)amino)pyrimidin-2-yl)amino)-3-methoxyphenyl)piperazin-1-yl)methyl)pyrazin-2-yl)dihydropyrimidine-2,4(1H,3H)-dione]",,A (A is defined as 0% ≤ substrate protein remaining % ≤ 80%)
100 to 500,,,,"CCc1cc2c(cc1N1CCN(Cc3cccc(N4CCC(=O)NC4=O)c3)CC1)C(C)(C)c1[nH]c3cc(C#N)ccc3c1C2=O [GT-07325, 8-(4-(3-(2,4-dioxotetrahydropyrimidin-1(2H)-yl)benzyl)piperazin-1-yl)-9-ethyl-6,6-dimethyl-11-oxo-6,11-dihydro-5H-benzo[b]carbazole-3-carbonitrile]",10 to 50,A (A is defined as 0% ≤ substrate protein remaining % ≤ 80%)
,,,,"CCc1cc2c(cc1N1CCN(Cc3ccnc(N4CCC(=O)NC4=O)c3)CC1)C(C)(C)c1[nH]c3cc(C#N)ccc3c1C2=O [GT-07834, 8-(4-((2-(2,4-dioxotetrahydropyrimidin-1(2H)-yl)pyridin-4-yl)methyl)piperazin-1-yl)-9-ethyl-6,6-dimethyl-11-oxo-6,11-dihydro-5H-benzo[b]carbazole-3-carbonitrile]",,A (A is defined as 0% ≤ substrate protein remaining % ≤ 80%)
